Measurements published in PMC9780888, “4-Isobutylmethcathinone—A Novel Synthetic Cathinone with High In Vitro Cytotoxicity and Strong Receptor Binding Preference of Enantiomers” (Pharmaceuticals, 2022).
Like-named read-outs stand apart in the source and are kept apart here.

Test system: 5637, SH-SY5Y, HMC-3, Hep G2, L929; HaCaT, CaCo-2, MRC-5, BJ cells
Assay: WST-1 viability assay, summary ranges over groups of cell lines
Format: cell-based
Method: Based on the novelty of the IMBcat compound, we aimed to evaluate its in vitro cytotoxicity in selected model cell lines as well as to determine the toxicity of the IBMcat enantiomers, since both the chemical structure and chirality of compounds could play a role in their bioactivity (Table 2). The cytotoxic profile of the IBMcat was determined by a WST-1 viability assay after 72-h treatment. For this purpose, cell lines derived from distinct tissues, often affected by NPSs, were chosen, i.e., cells of kidney, hepatic, neural, urinary, and intestinal origin as well as keratinocytes and primary fibroblasts (HEK 293T, Hep G2, HMC-3, SH-SY5Y, 5637, CaCo-2, HaCaT, MRC-5, and BJ, respectively). […]
In this study, the following cell lines were used: HEK 293T, Hep G2, HMC-3, SH-SY5Y, 5637, CaCo-2, HaCaT, MRC-5, BJ, and L929. […] The selected cell lines were chosen so that not only primary noncancerous cells are evaluated but also cells derived from tissues, which are the most often affected by novel synthetic drugs, i.e., kidney, liver, urinary bladder, and nervous tissue. […]
The cytotoxicity of IBMCat was evaluated in vitro by using a WST-1 viability assay (Sigma-Aldrich, Saint Louis, MO, USA) based on the transformation of a tetrazolium salt into colored formazan in metabolically active cells. […] After 72 h of additional incubation of the cells, their viability was determined by WST-1. […]

SMILES: CNC(C)C(=O)c1ccc(CC(C)C)cc1.Cl (centres unmarked) [IBMcat, 4-isobutylmethcathinone hydrochloride]
- IC50 (5637, SH-SY5Y, HMC-3 and Hep G2 cells, after 72 h, read-out: IC50 values (range over cell lines)): 18 to 65 µM
- IC50 (HaCaT, CaCo-2, MRC-5 and BJ cells, 72 h, racemate and enantiomers, read-out: IC50 (range over cell lines)): 329 to 749 µM
